Assay in all cases: IA-DTB cysteine engagement
Common to all, as to type: binding
What all share (conditions): 22Rv1 cells, 20 μM probe, 1 h, relative to DMSO

The target of one assay is T1, ANKRD46_C61 (Homo sapiens, UniProt Q86W74).
T1 construct: endogenous in cells; host or cells: 22Rv1
T1 sequence (Q86W74 1-228): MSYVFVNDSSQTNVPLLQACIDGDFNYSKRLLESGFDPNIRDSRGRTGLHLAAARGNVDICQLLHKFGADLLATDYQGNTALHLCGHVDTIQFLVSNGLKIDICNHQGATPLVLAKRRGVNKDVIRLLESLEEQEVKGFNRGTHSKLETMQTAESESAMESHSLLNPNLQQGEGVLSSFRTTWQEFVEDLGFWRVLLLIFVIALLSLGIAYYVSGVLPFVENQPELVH
The method, boiled down: (§1)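 Probe-exposed cells were lysed, IA-DTB-labeled, trypsinized and streptavidin-enriched. Multiplexed TMT quantitation gave engagement ratios versus DMSO, with non-tryptic peptides excluded and intensities normalized to median summed signal.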

In the next assay the target is T2, C3orf33_C275 (Homo sapiens, UniProt Q6P1S2).
T2 construct: endogenous in cells; host or cells: 22Rv1
T2 sequence (Q6P1S2 1-294): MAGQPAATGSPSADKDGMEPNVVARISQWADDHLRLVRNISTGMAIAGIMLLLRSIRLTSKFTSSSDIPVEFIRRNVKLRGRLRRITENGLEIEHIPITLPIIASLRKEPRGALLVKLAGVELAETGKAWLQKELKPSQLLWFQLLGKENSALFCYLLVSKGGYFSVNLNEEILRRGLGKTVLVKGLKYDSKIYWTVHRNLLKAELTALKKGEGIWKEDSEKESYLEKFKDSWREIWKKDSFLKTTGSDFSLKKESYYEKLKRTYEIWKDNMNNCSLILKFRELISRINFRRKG
In short, it runs like this: as §1

Another assay concerns the target T3, DCAF1_C1113 (Homo sapiens, UniProt Q9Y4B6).
T3 construct: endogenous in cells; host or cells: 22Rv1
The method, boiled down:
as §1

The next assay addresses T4, DCTN4_C258 (Homo sapiens, UniProt Q9UJW0).
T4 construct: endogenous in cells; host or cells: 22Rv1
In short, it runs like this:
as §1

The next assay deals with T5, SLC25A20_C89 (Homo sapiens, UniProt O43772).
T5 construct: endogenous in cells; host or cells: 22Rv1
T5 sequence (O43772 1-301): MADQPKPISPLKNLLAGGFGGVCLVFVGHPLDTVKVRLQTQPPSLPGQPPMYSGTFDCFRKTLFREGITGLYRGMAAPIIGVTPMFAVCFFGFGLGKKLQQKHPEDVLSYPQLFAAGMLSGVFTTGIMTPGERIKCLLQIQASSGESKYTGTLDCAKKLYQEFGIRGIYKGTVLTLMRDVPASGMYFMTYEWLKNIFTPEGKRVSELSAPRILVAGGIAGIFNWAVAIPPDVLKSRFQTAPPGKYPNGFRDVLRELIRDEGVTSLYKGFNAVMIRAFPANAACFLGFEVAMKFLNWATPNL
The method, boiled down:
as §1

For another assay, the target named is T6, TM7SF2_C184 (Homo sapiens, UniProt O76062).
T6 construct: endogenous in cells; host or cells: 22Rv1
T6 sequence (O76062 1-418): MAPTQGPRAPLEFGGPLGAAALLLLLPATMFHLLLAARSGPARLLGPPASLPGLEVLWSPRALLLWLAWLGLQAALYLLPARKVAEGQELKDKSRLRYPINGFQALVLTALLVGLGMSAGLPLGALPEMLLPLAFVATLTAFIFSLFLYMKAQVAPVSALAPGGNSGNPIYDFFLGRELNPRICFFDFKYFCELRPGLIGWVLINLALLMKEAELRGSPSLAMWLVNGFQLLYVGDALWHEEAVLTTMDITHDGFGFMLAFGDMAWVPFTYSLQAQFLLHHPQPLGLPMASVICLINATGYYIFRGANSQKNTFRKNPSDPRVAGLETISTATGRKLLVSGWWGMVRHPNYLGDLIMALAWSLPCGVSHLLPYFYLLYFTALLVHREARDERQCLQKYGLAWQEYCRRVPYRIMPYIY
The method, boiled down: as §1

T3 sequence (Q9Y4B6 whole entry): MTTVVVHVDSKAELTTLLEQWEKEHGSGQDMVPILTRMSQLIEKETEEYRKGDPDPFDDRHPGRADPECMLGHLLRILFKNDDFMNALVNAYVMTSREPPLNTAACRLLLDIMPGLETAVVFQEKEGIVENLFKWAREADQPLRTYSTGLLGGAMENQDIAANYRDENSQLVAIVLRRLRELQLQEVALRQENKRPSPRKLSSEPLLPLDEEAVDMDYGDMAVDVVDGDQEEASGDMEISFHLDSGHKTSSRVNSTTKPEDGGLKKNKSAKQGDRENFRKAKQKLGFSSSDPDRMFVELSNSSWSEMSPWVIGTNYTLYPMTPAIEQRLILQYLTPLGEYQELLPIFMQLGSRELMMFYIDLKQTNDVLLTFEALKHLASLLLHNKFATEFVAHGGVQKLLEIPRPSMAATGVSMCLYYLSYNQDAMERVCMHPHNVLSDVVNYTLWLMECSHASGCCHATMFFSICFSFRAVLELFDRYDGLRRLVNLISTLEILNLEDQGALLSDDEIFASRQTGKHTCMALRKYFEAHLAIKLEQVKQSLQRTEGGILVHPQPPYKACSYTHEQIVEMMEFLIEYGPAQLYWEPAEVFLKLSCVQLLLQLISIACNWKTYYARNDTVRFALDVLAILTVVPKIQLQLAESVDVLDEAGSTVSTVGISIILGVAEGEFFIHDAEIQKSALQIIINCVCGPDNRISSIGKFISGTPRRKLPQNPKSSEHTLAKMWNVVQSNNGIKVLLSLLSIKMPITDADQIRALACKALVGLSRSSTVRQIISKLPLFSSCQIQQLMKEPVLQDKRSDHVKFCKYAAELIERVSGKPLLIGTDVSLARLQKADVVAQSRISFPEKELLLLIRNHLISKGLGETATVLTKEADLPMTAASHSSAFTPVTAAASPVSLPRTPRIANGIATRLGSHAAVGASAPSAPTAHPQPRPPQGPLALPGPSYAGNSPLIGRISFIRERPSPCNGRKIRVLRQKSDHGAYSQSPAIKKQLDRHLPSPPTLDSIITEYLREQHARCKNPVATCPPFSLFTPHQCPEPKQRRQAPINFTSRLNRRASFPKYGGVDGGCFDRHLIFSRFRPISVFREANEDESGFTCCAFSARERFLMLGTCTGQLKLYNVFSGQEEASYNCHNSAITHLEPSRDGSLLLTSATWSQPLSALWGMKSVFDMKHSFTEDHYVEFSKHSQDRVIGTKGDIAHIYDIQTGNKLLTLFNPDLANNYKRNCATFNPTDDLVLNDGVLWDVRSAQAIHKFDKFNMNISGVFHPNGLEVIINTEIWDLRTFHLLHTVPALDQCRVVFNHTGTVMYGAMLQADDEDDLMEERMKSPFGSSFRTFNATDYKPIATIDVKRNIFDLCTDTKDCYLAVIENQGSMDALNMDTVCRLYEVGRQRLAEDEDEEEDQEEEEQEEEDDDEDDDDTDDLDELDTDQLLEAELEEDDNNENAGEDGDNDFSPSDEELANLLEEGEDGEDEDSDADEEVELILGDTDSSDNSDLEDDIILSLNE
T4 sequence (Q9UJW0 whole entry): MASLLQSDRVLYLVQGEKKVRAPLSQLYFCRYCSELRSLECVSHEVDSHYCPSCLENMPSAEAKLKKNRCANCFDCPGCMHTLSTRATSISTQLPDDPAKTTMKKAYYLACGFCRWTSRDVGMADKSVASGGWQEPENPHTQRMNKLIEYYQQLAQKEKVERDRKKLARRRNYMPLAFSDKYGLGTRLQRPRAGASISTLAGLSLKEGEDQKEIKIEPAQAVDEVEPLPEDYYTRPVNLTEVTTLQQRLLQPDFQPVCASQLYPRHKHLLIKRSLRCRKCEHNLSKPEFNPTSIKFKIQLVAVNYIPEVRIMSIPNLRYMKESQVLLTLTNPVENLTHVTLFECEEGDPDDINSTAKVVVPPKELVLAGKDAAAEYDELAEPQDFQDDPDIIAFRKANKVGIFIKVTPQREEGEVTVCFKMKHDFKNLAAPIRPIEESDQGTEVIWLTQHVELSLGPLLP

With `C=CC(=O)N1C[C@@H](c2ccc(Br)cc2)[C@H]1C(=O)Nc1cccc2cccnc12` [MY-1A, (2S,3R)-1-acryloyl-3-(4-bromophenyl)-N-(quinolin-8-yl)azetidine-2-carboxamide], the “% engagement ANKRD46_C61” value at ANKRD46_C61 was 17.5%. The “% engagement C3orf33_C275” value at C3orf33_C275 is listed as 83.5%. Besides, the “% engagement DCAF1_C1113” value on DCAF1_C1113 was −18%. The “% engagement DCTN4_C258” value on DCTN4_C258 is recorded as 27.5%. For the same compound, at SLC25A20_C89, the “% engagement SLC25A20_C89” value was 9.5%. Further, the “% engagement TM7SF2_C184” value on TM7SF2_C184 came out at 86.5%.

In the case of `C=CC(=O)N1C[C@H](c2ccc(Br)cc2)[C@@H]1C(=O)Nc1cccc2cccnc12` [MY-1B, (2R,3S)-1-acryloyl-3-(4-bromophenyl)-N-(quinolin-8-yl)azetidine-2-carboxamide], the “% engagement ANKRD46_C61” value at ANKRD46_C61 stood at 28.5%. Also, the “% engagement C3orf33_C275” value at C3orf33_C275 is on record as 83%. At DCAF1_C1113, the “% engagement DCAF1_C1113” value amounted to 68.5%. In addition, at DCTN4_C258, the “% engagement DCTN4_C258” value worked out at 68%. Moreover, the “% engagement SLC25A20_C89” value at SLC25A20_C89 is 94%. Further, on TM7SF2_C184, the “% engagement TM7SF2_C184” value came to 64%.

`C=CC(=O)N1C[C@H](c2ccc(Br)cc2)[C@H]1C(=O)Nc1cccc2cccnc12` [MY-3A, (2S,3S)-1-acryloyl-3-(4-bromophenyl)-N-(quinolin-8-yl)azetidine-2-carboxamide]: on ANKRD46_C61, the “% engagement ANKRD46_C61” value was 5.5%. Further, the “% engagement C3orf33_C275” value on C3orf33_C275 is given as 85%. Further, the “% engagement DCAF1_C1113” value at DCAF1_C1113 is recorded as −1.5%. Further, the “% engagement DCTN4_C258” value on DCTN4_C258 was 15.5%. The “% engagement SLC25A20_C89” value on SLC25A20_C89 is 45%. Also, the “% engagement TM7SF2_C184” value on TM7SF2_C184 worked out at 66.5%.

On to `C=CC(=O)N1C[C@H](c2ccc(Br)cc2)[C@H]1C(=O)Nc1cccc2cccnc12` [MY-3B, (2S,3S)-1-acryloyl-3-(4-bromophenyl)-N-(quinolin-8-yl)azetidine-2-carboxamide], for which the “% engagement ANKRD46_C61” value on ANKRD46_C61 was determined as 66.5%. For the same compound, on C3orf33_C275, the “% engagement C3orf33_C275” value worked out at 84%. Moreover, the “% engagement DCAF1_C1113” value on DCAF1_C1113 was found to be 26.5%. On DCTN4_C258, the “% engagement DCTN4_C258” value is listed as 31.5%. Further, at SLC25A20_C89, the “% engagement SLC25A20_C89” value worked out at 91%. The “% engagement TM7SF2_C184” value on TM7SF2_C184 turned out to be 100%.

(Values after patent publication US20250034216A1, “STEREOSELECTIVE COVALENT LIGANDS FOR ONCOGENIC AND IMMUNOLOGICAL PROTEINS” (The Scripps Research Institute, priority 2021, published 2025).)
